From patent publication US20040142821A1, “Pesticide composition comprising malononitrile compounds” (priority 2001, published 2004)

Assays:
[1] = test system: Diabrotica undecimpunctata; experiment: Pesticidal test against Diabrotica undecimpunctata, treated filter paper (Test Example 4); assay type: in vivo, Diabrotica undecimpunctata (southern-corn rootworm); settings: 50 ppm test liquid (Formulation Example 1), 1 ml on filter paper; 30 to 50 eggs and one germinated corn seed; 25° C.
Protocol: One germinated seed of corn and 30 to 50 eggs of Diabrotica undecimpunctata (southern-corn rootworm) was placed on the filter paper in the polyethylene cup, which was then kept covered and left in a room at 25° C. On the 6th day after, the number of surviving larvae of Diabrotica undecimpunctata was examined.

[2] = test system: Musca domestics; experiment: Pesticidal test against Musca domestics, treated filter paper with sucrose bait (Test Example 5); assay type: in vivo; settings: 500 ppm test liquid (Formulation Example 5), 0.7 ml on filter paper, ten female adults, after 24 hours
Protocol: Ten female adults of Musca domestics (house fly) were set free in the polyethylene cup, which was then kept covered. After 24 hours, their survival was examined to determine the mortality.

[3] = test system: German cockroach; experiment: Pesticidal test against German cockroach, treated filter paper with sucrose bait (Test Example 6); assay type: in vivo; settings: Blattella germanica, 144 h; 500 ppm test liquid (Formulation Example 5), 0.7 ml on filter paper; two male adults; after 6 days
Description: Two male adults of German cockroach (Blattalla germanica) were set free in the polyethylene cup, which was then kept covered. After 6 days, their survival was examined to determine the mortality.

[4] = test system: Cullex pipiens pallens; experiment: whole plant or invertebrate; settings: 24 h
Protocol: In 100 ml of ion-exchanged water, the test liquid had been prepared as described above, was added dropwise in an amount of 0.7 ml (the concentration of active ingredient was 3.5 ppm). Twenty final-instar larvae of Cullex pipiens pallens (common mosquito) were set free in the solution. After 1 days, their survival was examined to determine the mortality.

Row | SMILES | number of surviving pests on the 6th day after [1] | mortality at 500 ppm [2] | mortality at 500 ppm [3] | mortality at 3.5 µg/mL [4]
1 | C=CCC(C#N)(C#N)Cc1ccc(Cl)cc1 [Compound 1, 2-allyl-2-(4-chlorobenzyl)malononitrile] | 0 | 100% | 100% | 100%
2 | C=CCC(C#N)(C#N)C(C)(C)c1ccc(Cl)cc1 [Compound 2, 2-allyl-2-(1-(4-chlorophenyl)-1-methylethyl)malononitrile] | 0 |  | 100% | 100%
3 | C=CCC(C#N)(C#N)Cc1ccc(C(F)(F)F)cc1 [Compound 5, 2-allyl-2-(4-(trifluoromethyl)benzyl)malononitrile] | 0 |  | 100% | 100%
4 | N#CC(C#N)(Cc1ccc(Cl)cc1)C1CCCCC1 [Compound 9, 2-(4-chlorobenzyl)-2-cyclohexylmalononitrile] | 0 |  | 100% | 100%
5 | C=CCCC(C#N)(C#N)C(c1ccc(OC(F)(F)F)cc1)C(C)C (stereo not shown) [Compound 12] | 0 |  |  | 
6 | C=CCCC(C#N)(C#N)C(C)c1ccc(OC(F)(F)F)cc1 (stereo not shown) [Compound 16, 2-(3-butenyl)-2-(1-(4-(trifluoromethoxy)phenyl)ethyl)malononitrile] | 0 |  | 100% | 100%
7 | CC(C)CC(C#N)(C#N)Cc1ccc(Cl)cc1 [Compound 19, 2-(4-chlorobenzyl)-2-isobutylmalononitrile] | 0 |  |  | 100%
8 | C=CCCCC(C#N)(C#N)Cc1ccc(Cl)cc1 [Compound 21, 2-(4-chlorobenzyl)-2-(4-pentenyl)malononitrile] | 0 |  |  | 100%
9 | C=CC(C)C(C#N)(C#N)Cc1ccc(Cl)cc1 (stereo not shown) [Compound 22, 2-(4-chlorobenzyl)-2-(1-methyl-2-propenyl)malononitrile] | 0 | 100% |  | 100%
10 | C=CCC(C#N)(C#N)Cc1ccc(Cl)c(Cl)c1 [Compound 23, 2-allyl-2-(3,4-dichlorobenzyl)malononitrile] | 0 |  | 100% | 100%
11 | C=CCC(C#N)(C#N)Cc1ccc(Cl)cc1Cl [Compound 24, 2-allyl-2-(2,4-dichlorobenzyl)malononitrile] | 0 | 100% |  | 100%
12 | C=CCCC(C#N)(C#N)C(c1ccc(Cl)cc1)C(C)C (stereo not shown) [Compound 26, 2-(3-butenyl)-2-(1-(4-chlorophenyl)-2-methylpropyl)malononitrile] | 0 |  |  | 100%
13 | C=CCC(C#N)(C#N)C(c1cccc(Cl)c1)C(C)C (stereo not shown) [Compound 66, 2-allyl-2-(1-(3-chlorophenyl)-2-methylpropyl)malononitrile] | 0 | 100% |  | 100%
14 | C=CCCCC(C#N)(C#N)C(C)c1ccc(Cl)cc1 (stereo not shown) [Compound 76, 2-(1-(4-chlorophenyl)ethyl)-2-(4-pentenyl)malononitrile] | 0 |  |  | 100%
15 | CCCCC(C#N)(C#N)Cc1ccc(C(F)(F)F)cc1 [Compound 109, 2-butyl-2-(4-(trifluoromethyl)benzyl)malononitrile] |  | 100% | 100% | 100%
16 | CC(C)CC(C#N)(C#N)Cc1ccc(C(F)(F)F)cc1 [Compound 110, 2-(2-methylpropyl)-2-(4-(trifluoromethyl)benzyl)malononitrile] |  | 100% | 100% | 100%
